Results as given in patent US8440666B2, “Pyridazinone compounds and P2X7 receptor inhibitors” (Nissan Chemical Industries, Ltd., priority 2007, dated 2013).

Assays:
[1] = target: T1, Human P2X7 (hP2X7) receptor (Homo sapiens, UniProt Q99572); assay: Dye assay: BzATP-induced Yo-Pro-1 uptake in HEK293 cells stably expressing hP2X7; format: cell-based; details: 90 min incubation
T1 construct: myc-His (from the pcDNA3.1/myc-HisA vector); expressed in transfected cells
T1 sequence (Q99572 1-595): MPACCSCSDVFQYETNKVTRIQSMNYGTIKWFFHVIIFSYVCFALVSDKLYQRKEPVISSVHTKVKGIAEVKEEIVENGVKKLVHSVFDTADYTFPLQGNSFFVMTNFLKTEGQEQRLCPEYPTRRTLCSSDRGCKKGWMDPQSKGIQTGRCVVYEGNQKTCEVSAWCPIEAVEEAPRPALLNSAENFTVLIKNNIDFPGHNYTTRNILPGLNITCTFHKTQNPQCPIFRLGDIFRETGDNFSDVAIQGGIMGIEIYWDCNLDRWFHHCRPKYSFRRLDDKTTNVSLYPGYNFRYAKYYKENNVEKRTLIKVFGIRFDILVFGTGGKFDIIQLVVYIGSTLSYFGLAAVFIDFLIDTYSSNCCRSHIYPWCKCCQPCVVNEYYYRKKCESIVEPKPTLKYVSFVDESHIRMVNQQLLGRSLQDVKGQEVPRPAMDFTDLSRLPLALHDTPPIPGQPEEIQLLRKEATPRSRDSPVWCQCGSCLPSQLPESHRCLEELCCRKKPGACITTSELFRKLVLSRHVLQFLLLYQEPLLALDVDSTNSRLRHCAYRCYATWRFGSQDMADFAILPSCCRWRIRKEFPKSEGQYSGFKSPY
Source text: Human P2X7 (hP2×7) was cloned from a normal human brain total RNA library by reverse transcription (using SuperScript II (Invitrogen)) and PCR (using KOD-plus-(TOYOBO)). PCR primers were designed according to hP2X7 sequence registered in GENBANK with a putative amino acid sequence consisting of 595 amino acid residues. The PCR fragments were inserted into pcDNA3.1/myc-HisA vector (Invitrogen) and sequenced for confirmation.
HEK293 cells were transfected with hP2×7/pcDNA3.1/myc-HisA by lipofection, and 1 day later, the cells were treated with 1 mg/mL G418, and resistant cells were selected by appropriately dilution. The resistant cells were cloned by reseeding at a low density.
P2X7 receptor antagonists were screened by a dye uptake assay using HEK293 cells stably expressing hP2×7. Cells were plated on a type I collagen-coated black/clear bottom 96-well plate at 20000 cells/well and a day later, treated with varying concentrations of various test compounds for 30 minutes, then treated with a dye (Yo-Pro-1) (final concentration 2 μM) and BzATP (final concentration 0.1 mM) and incubated for 90 minutes. Then, the fluorescence (indicating the BzATP-induced Yo-Pro-1 uptake mediated by the P2X7 receptor) was measured with a microplate reader (excitation wavelength: 485 nm, emission wavelength: 535 nm). The % inhibition rates were calculated and plotted against the logarithms of the concentrations to determine IC50.

[2] = system: IL-1β in supernatants of peripheral blood mononuclear cells; assay: IL-1β assay: BzATP- or ATP-induced IL-1β release from LPS-treated human peripheral blood mononuclear cells; format: cell-based; details: 2 h; IL-1β in supernatants of LPS-treated human PBMC; BzATP (1 mM) or ATP (5 mM), 120 min
Protocol: Human whole blood from healthy volunteers was diluted with equal volume of saline and peripheral blood mononuclear cells were collected by using a Limphoprep tube (Daiichi Pure Chemicals), washed with physiological saline and seeded onto a 96-well plate with a medium containing 1-10 ng/mL LPS (SIGMA). 30 minutes later, the cells were treated with varying concentrations of various compounds and incubated for 30 minutes. Then, the cells were treated with BzATP (final concentration 1 mM) or ATP (final concentration 5 mM) and incubated for 120 minutes. The cells were centrifugated to collect supernatents, and the concentration of IL-1β in supernatants were determined by IL-1β HTRF kit (CIS biointernational). The % inhibition rates were calculated and plotted against the logarithms of the concentrations to determine IC50.

[3] = BzATP (0.1 mM)-induced Yo-Pro-1 uptake, compounds 30 min pre-treatment
[4] = BzATP 0.1 mM, Yo-Pro-1 2 μM, 30 min pre-treatment

CC1C(Nc2cnn(CC(=O)NCc3ccnnc3)c(=O)c2Br)CC2CC1C2(C)C (stereo not shown) [compound 214]
IC50 [1, 3]: 3.9 nM
IC50 [2]: 39 nM

C[C@@H]1[C@H]2C[C@@H](C[C@H]1Nc1cnn(CC(=O)NCc3ccnnc3N(C)C)c(=O)c1Cl)C2(C)C [compound 435]
IC50 [1, 4]: 3.2 nM
IC50 [2]: 36 nM

C[C@@H]1[C@H]2C[C@@H](C[C@H]1Nc1cnn(CC(=O)NCc3ccncc3)c(=O)c1Br)C2(C)C [compound 9]
IC50 [1, 3]: 3.5 nM
IC50 [2]: 47 nM

C[C@@H]1[C@H]2C[C@@H](C[C@H]1Nc1cnn(CC(=O)NCc3ccnnc3Cl)c(=O)c1Cl)C2(C)C [compound 433]
IC50 [1, 4]: 6.2 nM
IC50 [2]: 51 nM

CCC(NC(=O)Cn1ncc(N[C@@H]2C[C@@H]3C[C@H]([C@H]2C)C3(C)C)c(Br)c1=O)c1ccncc1 (stereo partly shown) [compound 171]
IC50 [1, 3]: 4.3 nM
IC50 [2]: 33 nM

C[C@@H]1[C@H]2C[C@@H](C[C@H]1Nc1cnn(CC(=O)N[C@H](C)c3ccncc3)c(=O)c1Cl)C2(C)C [compound 230]
IC50 [1, 3]: 2.8 nM
IC50 [2]: 3.1 nM

C[C@@H]1[C@H]2C[C@@H](C[C@H]1Nc1cnn(CCNCc3ccncc3)c(=O)c1Br)C2(C)C [Synthetic Example 47, 4-Bromo-2-[2-(pyridin-4-ylmethylamino)ethyl]-5-[(1R,2R,3R,5S)-2,6,6-trimethylbicyclo[3.1.1]hept-3-ylamino]pyridazin-3(2H)-one]
IC50 [1, 3]: 21 nM
IC50 [2]: 61 nM

COc1cnccc1CNC(=O)Cn1ncc(N[C@@H]2C[C@@H]3C[C@H]([C@H]2C)C3(C)C)c(Br)c1=O [compound 216]
IC50 [1, 3]: 12 nM
IC50 [2]: 38 nM

CC(NC(=O)Cn1ncc(NC2C3CCCC2CCC3)c(Cl)c1=O)c1ccncc1Cl (stereo not shown) [compound 378]
IC50 [1, 3]: 1.5 nM
IC50 [2]: 1.5 nM

C[C@@H]1[C@H]2C[C@@H](C[C@H]1Nc1cnn(CC(=O)NCc3ccncc3N(C)C)c(=O)c1Cl)C2(C)C [compound 277]
IC50 [1, 3]: 3.7 nM
IC50 [2]: 4.3 nM

Cc1cnccc1CNC(=O)Cn1ncc(NC23CC4CC(CC2C4)C3)c(Cl)c1=O [compound 338]
IC50 [1, 3]: 5.3 nM

COc1cc(CNC(=O)Cn2ncc(N[C@@H]3C[C@@H]4C[C@H]([C@H]3C)C4(C)C)c(Br)c2=O)on1 [compound 100]
IC50 [1, 3]: 54 nM

CN(C)c1cnccc1CNC(=O)Cn1ncc(NC23CC4CC(CC(C4)C2)C3)c(Cl)c1=O [compound 366]
IC50 [1, 3]: 2.6 nM

C[C@@H]1[C@H]2C[C@@H](C[C@H]1Nc1cnn(CC(=O)NCc3cccnc3)c(=O)c1Br)C2(C)C [compound 12]
IC50 [1, 3]: 20 nM

CC1(C)[C@@H]2C[C@@H](Nc3cnn(CC(=O)NCc4ccncc4)c(=O)c3Br)[C@@](C)(O)[C@H]1C2 [compound 314]
IC50 [1, 3]: 34 nM

CCC(NC(=O)Cn1ncc(NC23CC4CC(CC2C4)C3)c(Cl)c1=O)c1ccncc1 (stereo not shown) [compound 337]
IC50 [1, 3]: 8.2 nM

O=C(Cn1ncc(NC2CC3CC4CC(C3)C2C4)c(Br)c1=O)NCc1ccncc1 (stereo not shown) [compound 331]
IC50 [1, 3]: 19 nM

C[C@@H]1[C@H]2C[C@@H](C[C@H]1Nc1cnn(CC(=O)NC(C#N)c3ccccc3)c(=O)c1Br)C2(C)C (stereo partly shown) [compound 190]
IC50 [1, 3]: 54 nM

C[C@@H]1[C@H]2C[C@@H](C[C@H]1Nc1cnn(CCS(=O)(=O)c3ccccc3)c(=O)c1Cl)C2(C)C [compound 308]
IC50 [1, 3]: 230 nM

C[C@@H]1[C@H]2C[C@@H](C[C@H]1Nc1cnn(CC(=O)NCc3cc[n+]([O-])cc3)c(=O)c1Br)C2(C)C [Synthetic Example 158, 4-[(2-{5-Bromo-6-oxo-4-[(1R,2R,3R,5S)-2,6,6-trimethylbicyclo[3.1.1]hept-3-ylamino]pyridazin-1(6H)-yl}acetamido)methyl]pyridine 1-oxide]
IC50 [1, 3]: 45 nM

CC(C(=O)NCc1ccncc1)n1ncc(N[C@@H]2C[C@@H]3C[C@H]([C@H]2C)C3(C)C)c(Br)c1=O (stereo partly drawn) [Synthetic Example 46, 2-{5-Bromo-6-oxo-4-[(1R,2R,3R,5S)-2,6,6-trimethylbicyclo[3.1.1]hept-3-ylamino]pyridazin-1(6H)-yl}-N-(pyridin-4-ylmethyl)propanamide]
IC50 [1, 3]: 14 nM

CCC(NC(=O)Cn1ncc(N[C@@H]2C[C@@H]3C[C@H]([C@H]2C)C3(C)C)cc1=O)c1ccncc1 (stereo partly shown) [compound 295]
IC50 [1, 3]: 230 nM

C[C@@H]1[C@H]2C[C@@H](C[C@H]1Nc1cnn(CC(=O)NCc3ccnc(C#N)c3)c(=O)c1Br)C2(C)C [compound 219]
IC50 [1, 3]: 31 nM

CC(NC(=O)Cn1ncc(N[C@@H]2C[C@@H]3C[C@@H](C3(C)C)[C@]2(C)O)c(Cl)c1=O)c1ccnc(F)c1 (stereo partly shown) [compound 365]
IC50 [1, 3]: 2.7 nM

CCN(CC)c1ccc(C(Cn2ncc(N[C@@H]3C[C@@H]4C[C@H]([C@H]3C)C4(C)C)c(Br)c2=O)=NOC)cc1 [Synthetic Example 159, 4-Bromo-2-{2-[4-(diethylamino)phenyl]-2-(methoxyimino)ethyl}-5-[(1R,2R,3R,5S)-2,6,6-trimethylbicyclo[3.1.1]hept-3-ylamino]pyridazin-3(2H)-one]
IC50 [1, 3]: 77 nM

C[C@@H]1[C@H]2C[C@@H](C[C@H]1Nc1cnn(Cc3ccccn3)c(=O)c1Br)C2(C)C [compound 87]
IC50 [1, 3]: 62 nM

C[C@@H]1[C@H]2C[C@@H](C[C@H]1Nc1cnn(CC(=O)NCc3ccc(NS(C)(=O)=O)cc3)c(=O)c1Cl)C2(C)C [compound 252]
IC50 [1, 3]: 130 nM

CC(NC(=O)Cn1ncc(N[C@@H]2C[C@@H]3C[C@H]([C@H]2C)C3(C)C)c(Br)c1=O)c1ccc(Cl)cc1 (stereo partly shown) [compound 197]
IC50 [1, 3]: 32 nM

CN(C)c1cnccc1CNC(=O)Cn1ncc(NC2C3CCCC2CCC3)c(Cl)c1=O (stereo not shown) [compound 373]
IC50 [1, 3]: 2.8 nM

CC(NC(=O)Cn1ncc(NC2C3CCCC2CCC3)c(Cl)c1=O)c1ccnnc1 (stereo not shown) [compound 376]
IC50 [1, 3]: 2.7 nM

CC1(C)[C@H]2CC[C@@H](CNc3cnn(CC(=O)NCc4ccncc4)c(=O)c3Br)[C@@H]1C2 [compound 54]
IC50 [1, 3]: 26 nM

CC(C)CNC(=O)Cn1ncc(N[C@@H]2C[C@@H]3C[C@H]([C@H]2C)C3(C)C)c(Br)c1=O [compound 209]
IC50 [1, 3]: 42 nM

CC(NC(=O)Cn1ncc(NC2CC3CC(C2C)C3(C)C)c(Br)c1=O)c1ccnnc1 (stereo not shown) [compound 220]
IC50 [1, 3]: 4.2 nM

CC1(C)C2CCC1(C)C(Nc1cnn(CC(=O)NCc3ccncc3)c(=O)c1Br)C2 (stereo not shown) [compound 61]
IC50 [1, 3]: 41 nM

Cc1cc(C(C)NC(=O)Cn2ncc(N[C@@H]3C[C@@H]4C[C@H]([C@H]3C)C4(C)C)c(Cl)c2=O)c(Cl)nn1 (stereo partly shown) [compound 443]
IC50 [1, 4]: 5.6 nM

CC(NC(=O)Cn1ncc(NC2C3CCCC2CCC3)c(Cl)c1=O)c1ccnc(F)c1 (stereo not shown) [compound 377]
IC50 [1, 3]: 2.3 nM

CC(NC(=O)Cn1ncc(N[C@@H]2C[C@@H]3C[C@H]([C@H]2C)C3(C)C)c(Cl)c1=O)c1ccnnc1Cl (stereo partly shown) [compound 439]
IC50 [1, 4]: 2 nM

O=C(Cn1ncc(NC2C3CC4CC(C3)CC2C4)c(Br)c1=O)NCc1ccncc1 (stereo not shown) [compound 74]
IC50 [1, 3]: 22 nM

CC(NC(=O)Cn1ncc(N[C@@H]2C[C@@H]3C[C@H]([C@H]2C)C3(C)C)c(Cl)c1=O)c1ccnc(F)c1 (stereo partly shown) [compound 265]
IC50 [1, 3]: 3.9 nM

CCC(NC(=O)Cn1ncc(NC2C[C@@H]3CC([C@H]2C)C3(C)C)c(OC(F)F)c1=O)c1ccncc1 (stereo partly shown) [Synthetic Example 382]
IC50 [1, 3]: 25 nM

COc1cnccc1CNC(=O)Cn1ncc(N[C@@H]2C[C@@H]3C[C@H]([C@H]2C)C3(C)C)c(Cl)c1=O [compound 294]
IC50 [1, 3]: 5.4 nM

C[C@@H]1[C@H]2C[C@@H](C[C@H]1Nc1cnn(CC(=O)NCc3ccncc3)c(=O)c1-c1ccncc1)C2(C)C [Synthetic Example 379, 2-[6-Oxo-5-(pyridin-4-yl)-4-{[(1R,2R,3R,5S)-2,6,6-trimethylbicyclo[3.1.1]hept-3-yl]amino}pyridazin-1(6H)-yl]-N-(pyridin-4-ylmethyl)acetamide]
IC50 [1, 3]: 240 nM
